The values that follow come from patent US20110124653A1, “ARYL-SULPHONAMIDIC DIMERS AS METALLOPROTEASES INHIBITORS” (BRACCO IMAGING S.P.A., priority 2008, published 2011).

Each structure is given as a SMILES string.

Broadly, the IC50 is the concentration needed to halve the response being measured. Read a high IC50 as weaker potency.

Holding throughout (assay): MMP inhibition assay, fluorogenic substrate FS-6
Holding throughout (format): biochemical
Holding throughout (conditions): substrate FS-6 (Mca-Lys-Pro-Leu-Gly-Leu-Dpa-Ala-Arg-NH2), enzyme and inhibitor incubated 4 h at 25° C., triplicate

The target of assay [1] is MMP-13 (Homo sapiens, UniProt P45452). How it is done: (§1) As reported therein, the inhibitory activity of the compounds of the invention was evaluated on the known fluorogenic substrate (Mca-Lys-Pro-Leu-Gly-Leu-Dpa-Ala-Arg-NH2), shortly referred to as FS-6 (see, as a reference, U. Neumann, Analytical Biochem. 2004, 328, 166-173).
(§2) Recombinant human pro-MMP-2 was supplied by Prof. Gillian Murphy (Department of Oncology, University of Cambridge, UK), while pro-MMP-13 and pro-MMP-14 were purchased from Calbiochem. […] Pro-MMP-14 was activated with trypsin 5 μg/ml for 15 min at 37° C. followed by soybean trypsin inhibitor (SBTI) 23 μg/ml. For assay measurements, the inhibitor stock solutions (DMSO, 100 mM) were further diluted, at seven different concentrations (0.01 nM-100 μM) for each MMP in the fluorimetric assay buffer (FAB: Tris 50 mM, pH=7.5, NaCl 150 mM, CaCl2 10 mM, Brij 35 0.05% and DMSO 1%). Activated enzyme (final concentration 2.9 nM for MMP-2, 1 nM for MMP-14, 0.33 nM for MMP-13) and inhibitor solutions were incubated in the assay buffer for 4 h at 25° C. After the addition of 200 μM solution of the fluorogenic substrate Mca-Lys-Pro-Leu-Gly-Leu-Dpa-Ala-Arg-NH2 (Bachem) (see, for a reference, Neumann, U.; Kubota, H.; Frei, K.; Ganu, V.; Leppert, D. Anal. Biochem. 2004, 328, 166) for all of the enzymes in DMSO (final concentration 2 μM), the hydrolysis was monitored every 15 sec. for 20 min recording the increase in fluorescence (λex=325 nm, λem=395 nm) using a Molecular Device SpectraMax Gemini XS plate reader.
(§3) The assays were performed in triplicate, in a total volume of 200 μl per well, in 96-well microtitre plates (Corning, black, NBS). Control wells lack inhibitor. The MMP inhibition activity was expressed in relative fluorescent units (RFU). Percent of inhibition was calculated from control reactions without the inhibitor. IC50 was determined using the formula: Vi/Vo=1/(1+[I]/IC50), where Vi is the initial velocity of substrate cleavage in the presence of the inhibitor at concentration [I] and Vo is the initial velocity in the absence of the inhibitor. Results were analyzed using SoftMax Pro software and GraFit software.

Assay [2] concerns the target T1, MMP-14 (Homo sapiens, UniProt P50281).
T1 construct: purchased Calbiochem
On the procedure: as §1, §2, §3

Assay [3] addresses T2, MMP-2 (Homo sapiens, UniProt P08253).
T2 construct: Prof; Gillian Murphy (Department of Oncology, University of Cambridge, UK)
T2 sequence (P08253 110-660): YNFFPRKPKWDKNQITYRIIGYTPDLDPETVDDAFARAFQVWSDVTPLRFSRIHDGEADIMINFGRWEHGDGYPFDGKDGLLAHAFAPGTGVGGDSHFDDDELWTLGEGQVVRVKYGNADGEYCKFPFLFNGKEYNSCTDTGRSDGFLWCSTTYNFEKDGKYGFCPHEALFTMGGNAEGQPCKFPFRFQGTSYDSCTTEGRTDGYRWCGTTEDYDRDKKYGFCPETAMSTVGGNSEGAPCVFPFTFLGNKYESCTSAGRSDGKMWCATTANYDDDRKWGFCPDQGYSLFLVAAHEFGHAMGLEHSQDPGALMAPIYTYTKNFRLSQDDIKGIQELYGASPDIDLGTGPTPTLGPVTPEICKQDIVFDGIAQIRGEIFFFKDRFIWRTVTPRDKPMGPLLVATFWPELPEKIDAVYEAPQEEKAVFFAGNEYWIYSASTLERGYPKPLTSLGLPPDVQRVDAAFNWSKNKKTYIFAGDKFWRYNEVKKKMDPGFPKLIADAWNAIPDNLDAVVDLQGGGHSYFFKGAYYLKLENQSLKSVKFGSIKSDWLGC
How it is done: as §1, §2, §3

Turning to `O=C(CCCNC(=O)c1cccc(C(=O)NCCCC(=O)NCC[C@@H](NS(=O)(=O)c2ccc(-c3ccccc3)cc2)C(=O)NO)c1)NCC[C@@H](NS(=O)(=O)c1ccc(-c2ccccc2)cc1)C(=O)NO` [1b - example 16], the IC50 in assay [1] stood at 2.4 nM; in assay [2], 31 nM; in assay [3] it was 3.7 nM.
As for `O=C(NCC[C@H](C(=O)NO)N(OCCOCCN1CCN(C(=O)c2cccc(C(=O)N3CCN(CCOCCON([C@H](CCNC(=O)OCc4ccccc4)C(=O)NO)S(=O)(=O)c4ccc(-c5ccccc5)cc4)CC3)c2)CC1)S(=O)(=O)c1ccc(-c2ccccc2)cc1)OCc1ccccc1` [2b - example 17], the results for the IC50 in assay [1] and in assay [3] were 1.93 nM and 3.6 nM, respectively.
